Where two headings read alike, the source gives them in different places.
Columns and labels:
[1] = MAD study in healthy volunteers: whole blood and plasma PK; assay type: in vivo, human; details: for AUC(0-t): read-out: AUC0-24; for concentration at 14 day: read-out: Cmin
Experimental: Another study was initiated in healthy volunteer aged 18-55 years old to evaluate the safety and tolerability of multiple ascending doses of Compound I. Four cohorts of 10 subjects each (n=7 Compound I, n=3 placebo) were evaluated in a sequential double-blind manner. To reach steady state levels each subject received a loading dose regimen for 3 or 4 days followed by once daily medication for up to 14 days. Primary endpoints were safety and tolerability; key secondary endpoints included PK and effect on electrocardiogram (ECG) parameters. Table 7 below provides an overview of the doses of Compound I or placebo that were used in each cohort.
Preliminary whole blood PK parameters (geometric mean and % CV) and hemoglobin occupancy in healthy volunteers of the 15 mg, 25 mg, 50 mg, and 75 mg MAD cohorts are summarized in Table 10.

[2] = Single 100 mg dose PK in SCD subjects; assay type: in vivo, human; details: for AUC(0-t) / Cmax / half-life / Tmax: human; for AUC(0-t) / Cmax: 100 mg; for Tmax: median
Experimental: The PK profile of a single 100 mg dose in whole blood and plasma was evaluated using standard noncompartmental analysis. The preliminary PK parameter estimates of Compound I in whole blood from SCD subjects differed from healthy subjects in terms of elimination t½, AUC, Tmax, and blood to plasma ratio. In brief, the elimination t½ and Tmax were nearly 3× faster or occurred earlier, respectively, in SCD than in healthy subjects, and the blood to plasma ratio was about 30% of the values in healthy subjects (most likely due to the fewer RBCs compared to healthy subjects). For the plasma compartment, the differences between the 2 populations were most notable in terms of elimination t1/2, which again was about 2.5 times faster in SCD.

hemoglobin = target: T1, hemoglobin (Homo sapiens, UniProt P68871+P69905, E7V); experiment: Percent Hb occupancy in SCD patients (single dose, MAD-1, MAD-2, MAD-3); assay type: in vivo; details: for receptor occupancy at 150 mg / receptor occupancy at 50 mg / receptor occupancy at 100 mg: human; for receptor occupancy at 50 mg: 50 mg QD × 5 weeks (MAD-1); for receptor occupancy at 100 mg: 100 mg QD × 3 weeks (MAD-2)
T1 construct: divided by the molar concentration of hemoglobin in RBCs; endogenous in cells; host or cells: red blood cells / blood of patients with SCD (HbSS)
Experimental: In some embodiments, the therapeutically effective amount is determined by measuring the percent of hemoglobin occupied by the compound, i.e., the percent Hb occupancy. The percent Hb occupancy is a measure of target engagement defined as the percentage of hemoglobin bound by a compound (e.g., Compound I) calculated as the molar concentration of the compound (e.g., Compound I) in RBCs divided by the molar concentration of hemoglobin in RBCs (the mean corpuscular hemoglobin concentration calculated from the hematology panel). The values for concentration of a compound (e.g., Compound I) in RBCs is calculated from the concentrations in whole blood and plasma, and the hematocrit.
(§1) After a washout period of at least 56 days (so that elimination PK of Compound I could be assessed), the patients were administered a loading dose of 300 mg per day of Compound I for one day followed by 200 mg per day of Compound I for one day, and then were administered a maintenance dose of 50 mg per day of Compound I for five weeks (“MAD-1 Cohort”). The same patients then received another loading dose of 500 mg per day of Compound I for one day followed by 400 mg per day of Compound I for one day, and then were administered another maintenance dose of 100 mg per day of Compound I for three weeks (“MAD-2 Cohort”). The total treatment period of the MAD-1 Cohort and MAD-2 Cohort was 8 weeks.
(§2) Following the conclusion of the MAD-2 study and a washout period of about 8 months, the selected patients (n=4) were administered a loading dose of 300 mg BID for 4 days, followed thereafter by a maintenance dose of 150 mg QD (MAD-3 Cohort).

[3] = SCD cohort PK after repeated dosing; assay type: in vivo, human; details: for Cmax: 150 mg
Experimental: as §1, §2
The concentrations of Compound I in whole blood and plasma at week 6 in patients who participated in the MAD-3 cohort are shown in Table 19.

[4] = SCD cohort clinical measures of anemia and hemolysis (Hb, hematocrit, hemolysis markers); assay type: in vivo, human
Experimental: as §1
Primary endpoints were safety and tolerability. Key secondary endpoints included PK and the relationship between time-matched Compound I concentrations and changes in clinical measures of anemia and hemolysis from baseline.
as §2
Primary endpoints were safety and tolerability. Key secondary endpoints included PK and the relationship between time-matched Compound I concentrations and the changes in clinical measures of anemia and hemolysis from baseline.

[5] = plasma, SCD subjects n=6, single 100 mg, geometric mean
[6] = whole blood, SCD single 100 mg, mean
[7] = whole blood, SCD subjects n=6, single 100 mg, blood, geometric mean
[8] = MAD-3 (150 mg QD) week 6, SCD patient 0001
[9] = MAD-3 (150 mg QD) week 6, SCD patient 0003 (did not adhere to regimen)
[10] = MAD-3 (150 mg QD) week 6, SCD patient 0005
[11] = SCD, read-out: Hemoglobin Occupancy (%) at Cmax, mean
[12] = SCD, read-out: Hemoglobin Occupancy (%) at Cmin, mean
[13] = MAD-3 (150 mg QD) week 6, SCD patient 0004
[14] = six SCD patients, 8 weeks (MAD-1 then MAD-2)

Structure (SMILES): O=Cc1c(O)cccc1OC[C@@H]1COCCN1C(=O)c1cccnc1CCO [Compound I, (S)-2-hydroxy-6-((4-(2-(2-hydroxyethyl)nicotinoyl)morpholin-3-yl)methoxy)benzaldehyde]
- B:P ratio (mean AUC0-24 blood:mean AUC0-24 plasma) ([1]; HV MAD Day 14, 75 mg QD maintenance): 140
- AUC(0-t) ([1]; human, HV MAD Day 14, 15 mg QD maintenance, whole blood): 2840 µg·h/mL
- concentration at 14 day ([1]; human, HV MAD Day 14, 25 mg QD maintenance, whole blood): 135000 ng/mL
- Tmax ([1]; human, HV MAD Day 14, 50 mg QD maintenance, whole blood, median): 3 h
- AUC(0-t) ([1]; human, HV MAD Day 14, 50 mg QD maintenance, whole blood): 5140 µg·h/mL
- Cmax ([1]; human, HV MAD Day 14, 75 mg QD maintenance (loading 500/500/500/400 mg), whole blood): 308000 ng/mL
- concentration at 14 day ([1]; human, HV MAD Day 14, 75 mg QD maintenance, whole blood): 297000 ng/mL
- B:P ratio (mean AUC0-t blood:mean AUC0-t plasma) ([2]; SCD single 100 mg): 69.3
- B:P ratio AUC0-inf ([2]; SCD subjects n=6, single 100 mg): 69.3
- t½ ([2]; SCD subjects n=6, single 100 mg, blood, geometric mean): 235 h
- AUC(0-t) [2, 5]: 67.2 µg·h/mL
- Cmax [2, 5]: 1010 ng/mL
- AUC(0-t) [2, 6]: 4690 µg·h/mL
- Cmax [2, 6]: 16700 ng/mL
- AUC(0-t) [2, 7]: 4540 µg·h/mL
- Cmax [2, 7]: 16200 ng/mL
- half-life ([2]; SCD single 100 mg, whole blood, mean, read-out: t1/2 (converted)): 235 h
- Tmax ([2]; SCD single 100 mg, whole blood): 8 h
- half-life ([2]; SCD subjects n=6, single 100 mg, plasma, geometric mean, read-out: t½ (converted)): 252 h
- Tmax ([2]; SCD subjects n=6, single 100 mg, plasma): 1.5 h
- blood to plasma ratio in SCD as share of the values in healthy subjects ([2]; single 100 mg): about 30%
- elimination t1/2 in plasma, times faster in SCD ([2]; single 100 mg, plasma): about 2.5 times
- Tmax in whole blood, times earlier in SCD than in healthy subjects ([2]; single 100 mg, whole blood): ~3 ×
- elimination t½ in whole blood, times faster in SCD than in healthy subjects ([2]; single 100 mg, whole blood): ~3 ×
- % Hb occupancy based on Cmax (hemoglobin; SCD single 100 mg, mean): 3.3%
- patients who achieved Hb occupancy >40% (hemoglobin; SCD, 100 mg dose level): two out of six
- mean Hb occupancy (hemoglobin; adults with SCD, maintenance doses 100 mg and 150 mg QD): > 30%
- receptor occupancy at 150 mg (hemoglobin; [8]): 48%
- receptor occupancy at 150 mg (hemoglobin; [9]): 7%
- receptor occupancy at 150 mg (hemoglobin; MAD-3 (150 mg QD) week 6, SCD patient 0004 (Hb and hematocrit increases lower the occupancy value)): 31%
- receptor occupancy at 150 mg (hemoglobin; [10]): 46%
- receptor occupancy at 50 mg (hemoglobin; [11]): 17.7%
- receptor occupancy at 50 mg (hemoglobin; [12]): 15.3%
- receptor occupancy at 100 mg (hemoglobin; [11]): 32.6%
- receptor occupancy at 100 mg (hemoglobin; [12]): 29.8%
- time to steady-state concentrations with model-selected first doses ([3]; SCD, loading doses followed by 50 mg and 100 mg second doses (FIG. 15)): ≤ 1 week
- half-life ([3]; human, in vivo, SCD, after the last dose (MAD-2), assessed over about 15 weeks, read-out: elimination t1/2 (converted)): ~240 h
- Cmax ([3]; human, plasma, MAD-3 (150 mg QD) week 6, SCD patient 0001, read-out: Plasma (Cmax) Concentration): 6980 ng/mL
- Cmax ([3]; human, plasma, MAD-3 (150 mg QD) week 6, SCD patient 0003 (did not adhere to regimen), read-out: Plasma (Cmax) Concentration): 1610 ng/mL
- Cmax ([3]; human, plasma, MAD-3 (150 mg QD) week 6, SCD patient 0004, read-out: Plasma (Cmax) Concentration): 3830 ng/mL
- Cmax ([3]; human, plasma, MAD-3 (150 mg QD) week 6, SCD patient 0005, read-out: Plasma (Cmax) Concentration): 7610 ng/mL
- Cmax ([3]; human, whole blood, MAD-3 (150 mg QD) week 6, SCD patient 0001, read-out: Whole Blood (Cmax) Concentration): 322000 ng/mL
- Cmax ([3]; human, whole blood, MAD-3 (150 mg QD) week 6, SCD patient 0003 (did not adhere to regimen), read-out: Whole Blood (Cmax) Concentration): 36700 ng/mL
- Cmax ([3]; human, whole blood, MAD-3 (150 mg QD) week 6, SCD patient 0004, read-out: Whole Blood (Cmax) Concentration): 259000 ng/mL
- Cmax ([3]; human, whole blood, MAD-3 (150 mg QD) week 6, SCD patient 0005, read-out: Whole Blood (Cmax) Concentration): 308000 ng/mL
- average hematocrit after washout (returned to baseline levels) ([4]; 5 SCD subjects, after 15-week washout, vs. 23.02%): 23.46%
- Hb levels [4, 8]: 12.9 g/dL
- Hb levels [4, 9]: 8.9 g/dL
- Hematocrit [4, 9]: 27.6%
- Hb levels [4, 13]: 13.6 g/dL
- Hematocrit [4, 13]: 37.8%
- Hb levels [4, 10]: 10.9 g/dL
- Hematocrit [4, 10]: 30.9%
- decrease in mean hemoglobin after the last dose ([4]; SCD, 15-week washout after MAD-2): 2.2 g/dL
- mean increase in hematocrit from baseline ([4]; SCD, baseline to end of week 8 of treatment): 6.5%
- hemolysis markers (reticulocytes, absolute reticulocytes, LDH, indirect bilirubin) ([4]; all six SCD subjects, 8 weeks (MAD-1 then MAD-2)): improvements in hemolysis markers
- Hb increase at the end of the study (maximum) [4, 14]: up to 1.3 g/dL
- Hb mean increase at the end of the study [4, 14]: 2.3 g/dL

Source: US20250041312A1, “METHODS OF ADMINISTERING A MODULATOR OF HEMOGLOBIN” (Global Blood Therapeutics, Inc., priority 2021, published 2025)
